DBAASP
In brackets after ≈: the same amount, converted by molar mass. Each block holds one compound with its values, some of them ahead of it.

How the values were obtained:
Experiment in all cases: ≥ marks a high value that may be exact or a test limit, other limits are often not marked, values filed in µg/mL are converted to µM
[1] = test system: Enterococcus faecalis 1F-1
[2] = test system: Bacillus amyloliquefaciens ATCC 23842
[3] = test system: Escherichia coli ATCC 25922
[4] = test system: Bacillus cereus ATCC 14579
[5] = test system: Bacillus subtilis ATCC 6051
[6] = test system: Staphylococcus aureus ATCC 29213
[7] = test system: Salmonella enterica ATCC H9812
[8] = test system: Bacillus licheniformis ATCC 14580
[9] = test system: Staphylococcus aureus 215
[10] = test system: Proteus mirabilis ATCC 35659
Enterococcus faecalis A4 = test system: Enterococcus faecalis A4
[11] = test system: Enterococcus faecium 5F-10
Staphylococcus aureus MR = test system: Staphylococcus aureus MR
[12] = test system: Pseudomonas aeruginosa PAO1
[13] = test system: Enterococcus faecium 4W-9
Escherichia coli UTI89 = test system: Escherichia coli UTI89
Enterobacter cloacae = test system: Enterobacter cloacae
[14] = test system: Klebsiella pneumoniae NDM-1
Klebsiella pneumoniae = test system: Klebsiella pneumoniae
[15] = test system: Klebsiella pneumoniae ATCC 700603
Vibrio cholerae = test system: Vibrio cholerae
[16] = test system: Escherichia coli ATCC 35218
[17] = test system: Pseudomonas aeruginosa ATCC 27853
Staphylococcus aureus = test system: Staphylococcus aureus
Bacillus subtilis = test system: Bacillus subtilis
Bacillus cereus = test system: Bacillus cereus
Pseudomonas fluorescens = test system: Pseudomonas fluorescens
Vibrio parahaemolyticus = test system: Vibrio parahaemolyticus
[18] = test system: Staphylococcus epidermidis
Aeromonas hydrophila = test system: Aeromonas hydrophila
Pseudomonas aeruginosa = test system: Pseudomonas aeruginosa
Escherichia coli = test system: Escherichia coli
Cryptococcus neoformans = test system: Cryptococcus neoformans
Vibrio alginolyticus = test system: Vibrio alginolyticus
Shigella flexneri = test system: Shigella flexneri
Candida albicans = test system: Candida albicans
Escherichia coli L361 = test system: Escherichia coli L361
Bacillus cereus ACM 446 = test system: Bacillus cereus ACM 446
[19] = test system: Salmonella enterica subsp. enterica serovar Salford IMVS 1710
Escherichia coli O9 = test system: Escherichia coli O9
[20] = test system: Staphylococcus aureus NCTC 6571
[21] = test system: Listeria monocytogenes NCTC 7973
[22] = test system: Pseudomonas aeruginosa H187
Enterococcus faecalis = test system: Enterococcus faecalis
[23] = test system: Staphylococcus aureus K147
[24] = test system: Staphylococcus aureus SAP 0017
Candida albicans CAN105 = test system: Candida albicans CAN105
Escherichia coli UB1005 = test system: Escherichia coli UB1005

MIC (Pseudomonas fluorescens): ≥ 100 µM | MIC (Escherichia coli L361): ≥ 50 µM | MIC (Bacillus cereus ACM 446): ≥ 100 µM | MIC [19]: ≥ 100 µM | MIC (Escherichia coli O9): ≥ 60 µM | MIC [20]: ≥ 100 µM | MIC [21]: ≥ 40 µM
SMILES: CC[C@H](C)[C@H](NC(=O)[C@H](CO)NC(=O)[C@@H]1CCCN1C(=O)[C@H](C)NC(=O)CNC(=O)[C@H](CC(C)C)NC(=O)[C@H](CCCCN)NC(=O)[C@@H](N)CCCCN)C(=O)N[C@H](C(=O)N[C@@H](CS)C(=O)N[C@H](C(=O)N[C@@H](CCCN=C(N)N)C(=O)N[C@@H](CCCN=C(N)N)C(=O)N[C@@H](C)C(=O)N[C@@H](Cc1ccccc1)C(=O)N[C@@H](C)C(=O)O)C(C)C)[C@@H](C)O [KKLGAPSITCVRRAFA]

MIC [22]: 13 µM (≈ 32 µg/mL) | MIC (Enterococcus faecalis): 26.1 µM (≈ 64 µg/mL) | MIC [23]: 26.1 µM (≈ 64 µg/mL) | MIC [24]: 26.1 µM (≈ 64 µg/mL) | MIC [18]: 17.5 µM (≈ 43 µg/mL) | MIC (Candida albicans CAN105): 26.1 µM (≈ 64 µg/mL) | MIC (Escherichia coli UB1005): 5.3 µM (≈ 13 µg/mL)
SMILES: CC[C@H](C)[C@H](NC(=O)CNC(=O)[C@@H](NC(=O)[C@H](CCCCN)NC(=O)[C@H](CCCCN)NC(=O)[C@H](Cc1ccccc1)NC(=O)[C@H](CC(C)C)NC(=O)[C@H](CCCCN)NC(=O)[C@H](Cc1c[nH]c2ccccc12)NC(=O)[C@@H](N)CCCCN)[C@@H](C)CC)C(=O)NCC(=O)N[C@@H](C)C(=O)N[C@H](C(=O)N[C@@H](CC(C)C)C(=O)N[C@H](C(=O)N[C@H](C(=O)NCC(=O)N[C@@H](CC(C)C)C(=O)N1CCC[C@H]1C(=O)N[C@@H](C)C(=O)N[C@@H](CC(C)C)C(=O)N[C@H](C(=O)N[C@@H](CO)C(=O)O)[C@@H](C)CC)[C@@H](C)O)[C@@H](C)O)C(C)C [KWKLFKKIGIGAVLTTGLPALIS]

The next lines start with the compound.

SMILES: CC(C)C[C@H](NC(=O)[C@H](CC(C)C)NC(=O)[C@@H](N)CCC(=O)O)C(=O)N[C@@H](CO)C(=O)N[C@@H](C)C(=O)N[C@H](C(=O)N[C@@H](CC(=O)O)C(=O)O)C(C)C [ELLSAVD]
MIC [1]: ≥ 172 µM | MIC [2]: ≥ 172 µM | MIC [3]: 85.8 µM (≈ 64 µg/mL) | MIC [4]: ≥ 172 µM | MIC [5]: ≥ 172 µM | MIC [6]: > 172 µM | MIC [7]: ≥ 172 µM | MIC [8]: ≥ 172 µM | MIC [9]: ≥ 172 µM | MIC [10]: ≥ 172 µM | MIC (Enterococcus faecalis A4): ≥ 172 µM | MIC [11]: ≥ 172 µM | MIC (Staphylococcus aureus MR): ≥ 172 µM | MIC [12]: > 172 µM | MIC [13]: ≥ 172 µM

SMILES: CC[C@H](C)[C@H](NC(=O)[C@@H](NC(=O)[C@@H]1CCCN1C(=O)[C@H](CO)NC(=O)[C@H](CC(C)C)NC(=O)[C@H](CCCCN)NC(=O)[C@H](CCCCN)NC(=O)[C@H](Cc1ccccc1)NC(=O)[C@H](CC(C)C)NC(=O)[C@H](CCCCN)NC(=O)[C@H](CCCCN)NC(=O)[C@H](CC(C)C)NC(=O)[C@H](CCCCN)NC(=O)[C@H](CCCCN)NC(=O)[C@H](CCCN=C(N)N)NC(=O)[C@@H](N)Cc1ccccc1)C(C)C)C(=O)N1CCC[C@H]1C(=O)N[C@@H](CC(C)C)C(=O)N[C@@H](CC(C)C)C(=O)N[C@@H](CCCCN)C(=O)N[C@@H](CC(C)C)C(=O)NCC(N)=O [FRKKLKKLFKKLSPVIPLLKLG]
MIC [3]: 2 µM (≈ 5.19 µg/mL) | MIC (Escherichia coli UTI89): 2 µM (≈ 5.19 µg/mL) | MIC (Enterobacter cloacae): 4 µM (≈ 10.4 µg/mL) | MIC [14]: 2.83 µM (≈ 7.34 µg/mL) | MIC (Klebsiella pneumoniae): 2 µM (≈ 5.19 µg/mL) | MIC [15]: 2 µM (≈ 5.19 µg/mL) | MIC (Vibrio cholerae): 4 µM (≈ 10.4 µg/mL) | MIC [16]: 2 µM (≈ 5.19 µg/mL) | MIC [12]: 2 µM (≈ 5.19 µg/mL) | MIC [17]: 2 µM (≈ 5.19 µg/mL)

SMILES: CSCC[C@H](NC(=O)[C@H](CCCCN)NC(=O)[C@H](CCC(N)=O)NC(=O)[C@H](CCSC)NC(=O)[C@H](CC(N)=O)NC(=O)[C@H](CCCN=C(N)N)NC(=O)[C@H](CC(N)=O)NC(=O)[C@H](Cc1ccc(O)cc1)NC(=O)[C@H](CCCCN)NC(=O)[C@H](Cc1ccc(O)cc1)NC(=O)[C@H](CC(=O)O)NC(=O)[C@H](CCCCN)NC(=O)[C@H](Cc1c[nH]c2ccccc12)NC(=O)[C@H](C)NC(=O)[C@H](CCC(N)=O)NC(=O)[C@H](CCCN=C(N)N)NC(=O)[C@H](C)NC(=O)CNC(=O)[C@@H](N)CCCCN)C(=O)N[C@@H](CC(N)=O)C(=O)N[C@@H](CCC(N)=O)C(=O)NCC(=O)N[C@@H](Cc1ccc(O)cc1)C(=O)NCC(=O)N[C@@H](CCC(N)=O)C(=O)N[C@@H](CCC(N)=O)C(=O)NCC(=O)NCC(=O)O [KGARQAWKDYKYNRNMQKMNQGYGQQGG]
MIC (Staphylococcus aureus): > 50 µM | MIC (Bacillus subtilis): ≥ 35.4 µM | MIC (Bacillus cereus): ≥ 50 µM | MIC (Pseudomonas fluorescens): ≥ 50 µM | MIC (Vibrio parahaemolyticus): ≥ 50 µM | MIC [18]: ≥ 50 µM | MIC (Aeromonas hydrophila): ≥ 50 µM | MIC (Pseudomonas aeruginosa): > 50 µM | MIC (Escherichia coli): > 50 µM | MIC (Cryptococcus neoformans): 17.7 µM (≈ 58.5 µg/mL) | MIC (Vibrio alginolyticus): ≥ 50 µM | MIC (Shigella flexneri): ≥ 50 µM | MIC (Candida albicans): > 50 µM
